# Measured values: US20050164196A1, “Methods to predict patient responsiveness to tyrosine kinase inhibitors” (priority 2002, published 2005)
# Values joined by “and” are separate entries in the source; they are usually repeats but may differ in a detail not shown here. Equal values may be shown once. Where a name gives a salt, the structure may show the parent alone. Read-outs that look alike come from different tables or passages of the source.
# Columns and labels:
# [1] = tested on: Ph+ CML
# [2] = tested on: CML; conditions: cited from earlier work
# [3] = rs2290573 CC genotype, n = 26, 18-month data, ITT principle
# [4] = rs2290573 CT, TT genotype, n = 79, 18-month data, ITT principle
# [5] = of 54 CML patients treated with 300 mg or more
smiles,measurement,setting,value
"Cc1ccc(NC(=O)c2ccc(CN3CCN(C)CC3)cc2)cc1Nc1nccc(-c2cccnc2)n1 [Imatinib, Imatinib mesylate]",events of progression,"[1]; genotyped patients of the Imatinib arm, 18-month data, ITT principle",10 events
same,TTP (months),"[1]; individual patients with disease progression among the 105 analyzed patients, 18-month data, one line per patient, listed as STI571",16.1 months and 16.3 months and 11.8 months and 17.0 months and 13.4 months and 16.4 months and 9.7 months and 15.8 months and 5.6 months and 6.8 months
same,individuals who exhibited disease progression,"[1]; out of the entire 553 treated patients, 12-month data",24 individuals
same,patients who experienced progression events,"[1]; rs2290573 CC genotype, 26 patients, 18-month data",23.1%
same,Death (as primary reason for discontinuation),[1]; [3],0 (0) n (%)
same,Increase in WBC (approved by SMC),[1]; [3],1 (3.8) n (%)
same,Loss of CHR,[1]; [3],1 (3.8) n (%)
same,Loss of MCyR,[1]; [3],4 (15.4) n (%)
same,Progression to AP or BC,[1]; [3],0 (0) n (%)
same,Total number of patients with events (progression),[1]; [3],6 (23.1) n (%)
same,patients who experienced progression events,"[1]; rs2290573 CT or TT genotype, 79 patients, 18-month data",5.1%
same,Death (as primary reason for discontinuation),[1]; [4],0 (0) n (%)
same,Increase in WBC (approved by SMC),[1]; [4],0 (0) n (%)
same,Loss of CHR,[1]; [4],2 (2.5) n (%)
same,Loss of MCyR,[1]; [4],0 (0) n (%)
same,Progression to AP or BC,[1]; [4],2 (2.5) n (%)
same,Total number of patients with events (progression),[1]; [4],4 (5.1) n (%)
same,major responses (0-35% of cells in metaphase positive for the Ph′ chromosome),[2]; % of the 54 patients who received 300 mg or more,31%
same,complete cytogenetic remission (CCR),[2]; [5],7 patients
same,complete hematologic responses (CHR),[2]; [5],53 patients
same,cytogenic responses,[2]; [5],29 patients
same,major responses (0-35% of cells in metaphase positive for the Ph′ chromosome),[2]; [5],17 patients
